Calls of active or inactive are those of the source.
Key:
Coagulation factor XII = molecular target: T1, Coagulation factor XII (Homo sapiens, UniProt P00748); assay type: functional;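 further: activated factor XIIa alpha cleaving a fluorogenic AMC peptide substrate; inhibitor potency from loss of enzyme activity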
T1 sequence (P00748 whole entry): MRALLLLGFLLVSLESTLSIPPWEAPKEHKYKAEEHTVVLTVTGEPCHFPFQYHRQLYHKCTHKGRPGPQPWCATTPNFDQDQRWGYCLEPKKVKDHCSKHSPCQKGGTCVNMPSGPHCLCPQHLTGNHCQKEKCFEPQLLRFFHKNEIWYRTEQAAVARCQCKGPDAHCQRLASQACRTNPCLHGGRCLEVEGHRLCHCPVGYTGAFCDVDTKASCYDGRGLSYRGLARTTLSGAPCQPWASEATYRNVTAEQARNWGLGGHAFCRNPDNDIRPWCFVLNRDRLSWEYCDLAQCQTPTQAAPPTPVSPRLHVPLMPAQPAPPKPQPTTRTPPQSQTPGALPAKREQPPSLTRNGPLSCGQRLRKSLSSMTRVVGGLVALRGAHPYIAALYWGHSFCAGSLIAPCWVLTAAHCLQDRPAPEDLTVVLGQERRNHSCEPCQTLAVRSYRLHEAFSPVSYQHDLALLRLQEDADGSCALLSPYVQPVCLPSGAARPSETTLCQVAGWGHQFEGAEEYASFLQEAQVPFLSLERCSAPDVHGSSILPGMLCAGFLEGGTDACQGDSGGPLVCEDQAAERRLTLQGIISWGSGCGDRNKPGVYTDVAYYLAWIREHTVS

[1] = HEK-293T viability loss after treatment – luminescence, T-cell screen hits, cytotoxicity control for TCR NF-kB inhibitor project, dose response (AID 489026); assay type: functional, cell-based;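 further: cells exposed to compound about 14 hours before the viability readout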
[2] = Luminescence Cell-Based Dose Response HTS to Identify Inhibitors of 5'UTR Stem-Loop Driven Prion Protein mRNA Translation in H4 Neuroglioblastoma Cells. [Related pubchem assays: 1827 (Project Summary), 1813 (Primary HTS)]; assay type: functional
[3] = luciferase reporter signal suppression in cells – H4 neuroglioma cells, luminescence, dose response (AID 1990); assay type: functional, cell-based
BJ [4] = assay: cells; assay type: functional, cell-based; conditions: Homo sapiens
[5] = DRD fibroblast viability loss – cell-based, non-viral oncogenic, luminescence, dose response (AID 1934); assay type: functional; conditions: Homo sapiens
BJ [6] = assay: BJ-TERT fibroblast viability loss – cell-based, RAS-independent, luminescence, dose response (AID 1933); assay type: functional; conditions: Homo sapiens
[7] = Luminescence Cell-Based Dose Retest to Confirm Inhibitors of Cancer Stem Cells. [Related pubchem assays (depositor defined):AID2717, AID2721]; assay type: functional; conditions: Homo sapiens
BJ [8] = assay: BJ-TERT-LT-ST fibroblast viability loss – cell-based, RAS-independent, luminescence, dose response (AID 1935); assay type: functional; conditions: Homo sapiens;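 further: BJ fibroblasts immortalized with TERT plus LT and ST oncogenes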
[9] = alpha-synuclein stem-loop luciferase translation blockers – H4 neuroglioma cells, luminescence, confirmation (AID 1988); assay type: functional, cell-based
[10] = molecular target: T2, Replicative DNA helicase DnaB (Mycobacterium tuberculosis, UniProt P9WMR3); assay: DnaB intein splicing inhibitors, dose response, biochemical, cell-free fluorescence (AID 449749); assay type: functional
T2 sequence (P9WMR3 whole entry): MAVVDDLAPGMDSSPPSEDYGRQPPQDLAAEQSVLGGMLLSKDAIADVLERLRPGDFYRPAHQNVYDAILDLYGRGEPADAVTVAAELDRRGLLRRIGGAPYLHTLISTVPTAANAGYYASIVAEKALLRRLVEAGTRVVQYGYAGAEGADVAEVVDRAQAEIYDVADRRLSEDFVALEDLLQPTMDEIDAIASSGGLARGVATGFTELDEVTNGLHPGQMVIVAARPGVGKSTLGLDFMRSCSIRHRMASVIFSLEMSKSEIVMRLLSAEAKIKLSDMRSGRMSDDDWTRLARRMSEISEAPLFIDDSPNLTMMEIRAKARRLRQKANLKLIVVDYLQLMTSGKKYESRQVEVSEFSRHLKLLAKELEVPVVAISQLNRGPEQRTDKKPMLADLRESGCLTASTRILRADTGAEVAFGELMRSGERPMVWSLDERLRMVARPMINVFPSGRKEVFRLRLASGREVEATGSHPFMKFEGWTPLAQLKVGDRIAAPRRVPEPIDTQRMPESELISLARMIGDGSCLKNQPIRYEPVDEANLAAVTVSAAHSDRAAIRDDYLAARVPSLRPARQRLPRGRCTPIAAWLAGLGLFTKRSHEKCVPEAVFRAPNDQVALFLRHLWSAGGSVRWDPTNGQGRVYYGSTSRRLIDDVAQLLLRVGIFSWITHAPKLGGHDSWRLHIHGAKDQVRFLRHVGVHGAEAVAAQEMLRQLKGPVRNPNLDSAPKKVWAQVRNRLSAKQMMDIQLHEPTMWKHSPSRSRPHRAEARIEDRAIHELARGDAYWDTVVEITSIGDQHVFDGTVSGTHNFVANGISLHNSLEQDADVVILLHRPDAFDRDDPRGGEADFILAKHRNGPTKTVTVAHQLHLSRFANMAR

Beta-galactosidase = Beta-galactosidase (Escherichia coli, UniProt Q8VNN2); assay: PubChem AID 485352; assay type: functional
Protein RecA = molecular target: T3, Protein RecA (Mycobacterium tuberculosis, UniProt P9WHJ3); assay: Fluorescence Cell-Free Homogeneous Dose Retest to Identify Inhibitors of RecA-Intein Splicing Activity. [Related pubchem assays (depositor defined):AID2097, AID2223, AID489010, AID492950]; assay type: functional
T3 sequence (P9WHJ3 whole entry): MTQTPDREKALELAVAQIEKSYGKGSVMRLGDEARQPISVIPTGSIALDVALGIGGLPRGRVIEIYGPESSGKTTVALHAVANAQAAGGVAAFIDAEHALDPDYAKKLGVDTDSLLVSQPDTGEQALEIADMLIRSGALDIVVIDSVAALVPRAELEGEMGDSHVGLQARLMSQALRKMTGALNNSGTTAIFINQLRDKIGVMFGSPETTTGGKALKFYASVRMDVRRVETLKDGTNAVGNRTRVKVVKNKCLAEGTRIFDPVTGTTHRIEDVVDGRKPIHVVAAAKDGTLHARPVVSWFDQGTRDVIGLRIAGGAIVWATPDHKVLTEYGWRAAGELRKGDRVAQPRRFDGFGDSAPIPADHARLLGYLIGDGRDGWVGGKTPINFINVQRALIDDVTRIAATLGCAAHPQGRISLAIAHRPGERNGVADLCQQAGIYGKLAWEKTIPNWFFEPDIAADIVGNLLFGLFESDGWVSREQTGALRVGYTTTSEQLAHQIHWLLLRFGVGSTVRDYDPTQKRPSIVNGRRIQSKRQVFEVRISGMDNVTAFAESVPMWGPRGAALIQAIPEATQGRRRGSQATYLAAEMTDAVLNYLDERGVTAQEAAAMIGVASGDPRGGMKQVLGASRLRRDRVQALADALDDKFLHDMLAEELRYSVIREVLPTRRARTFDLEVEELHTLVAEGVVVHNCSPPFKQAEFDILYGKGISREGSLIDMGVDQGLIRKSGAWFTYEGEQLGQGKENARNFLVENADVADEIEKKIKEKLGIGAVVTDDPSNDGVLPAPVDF

[11] = molecular target: T4, Type-1 angiotensin II receptor (Homo sapiens, UniProt P30556); assay: antagonism of angiotensin II type 1 receptor – cell-based, uHTS hits, selectivity assay for APJ receptor antagonist project, dose response (AID 463214); assay type: functional;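 further: antagonist potency against angiotensin II stimulated AT1 response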
T4 sequence (P30556 whole entry): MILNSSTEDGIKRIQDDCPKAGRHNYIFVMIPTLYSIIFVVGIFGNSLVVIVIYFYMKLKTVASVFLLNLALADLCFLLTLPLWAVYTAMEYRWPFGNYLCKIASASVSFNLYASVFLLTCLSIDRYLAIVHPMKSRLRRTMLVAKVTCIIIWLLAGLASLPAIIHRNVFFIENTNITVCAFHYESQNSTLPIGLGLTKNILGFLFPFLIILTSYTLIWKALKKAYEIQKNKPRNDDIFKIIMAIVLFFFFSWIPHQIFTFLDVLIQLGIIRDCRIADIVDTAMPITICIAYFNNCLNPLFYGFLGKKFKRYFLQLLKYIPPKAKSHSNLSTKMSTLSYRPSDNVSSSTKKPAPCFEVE

[12] = fluconazole-exposed Candida albicans growth modulators – fluorescence, retest, confirmation (AID 2467); assay type: functional, cell-based
Vero = assay: cells; assay type: functional; conditions: Chlorocebus sabaeus
[13] = NIH-3T3 fibroblast cytotoxicity, dose response, cytotoxicity control, cell-based, fluorescence, Alamar Blue, secondary assay (AID 2327); assay type: functional;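 further: NIH-3T3 mouse fibroblasts cultured with fluconazole at 8 µg/mL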
[14] = THP-1 cell cytotoxicity, dose response, cytotoxicity control for non-replicating M. tuberculosis project (AID 489025); assay type: functional
cells = assay type: functional
Cytochrome P450 3A4 = Cytochrome P450 3A4 (Homo sapiens, UniProt P08684);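 further: CYP3A4 tested as one member of a cytochrome P450 panel screen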
[15] = molecular target: T5, Voltage-gated N-type calcium channel alpha-1B subunit/Amyloid beta A4 precursor protein-binding family A member 1 (Homo sapiens, UniProt Q00975+Q02410); assay type: protein assay
[16] = molecular target: T5, Voltage-gated N-type calcium channel alpha-1B subunit/Amyloid beta A4 precursor protein-binding family A member 1; assay type: protein assay; remark: listed apart in the source
Estrogen receptor = molecular target: T6, Estrogen receptor (Homo sapiens, UniProt P03372);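 further: potency for inhibiting coactivator peptide recruitment to the receptor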
T6 sequence (P03372 whole entry): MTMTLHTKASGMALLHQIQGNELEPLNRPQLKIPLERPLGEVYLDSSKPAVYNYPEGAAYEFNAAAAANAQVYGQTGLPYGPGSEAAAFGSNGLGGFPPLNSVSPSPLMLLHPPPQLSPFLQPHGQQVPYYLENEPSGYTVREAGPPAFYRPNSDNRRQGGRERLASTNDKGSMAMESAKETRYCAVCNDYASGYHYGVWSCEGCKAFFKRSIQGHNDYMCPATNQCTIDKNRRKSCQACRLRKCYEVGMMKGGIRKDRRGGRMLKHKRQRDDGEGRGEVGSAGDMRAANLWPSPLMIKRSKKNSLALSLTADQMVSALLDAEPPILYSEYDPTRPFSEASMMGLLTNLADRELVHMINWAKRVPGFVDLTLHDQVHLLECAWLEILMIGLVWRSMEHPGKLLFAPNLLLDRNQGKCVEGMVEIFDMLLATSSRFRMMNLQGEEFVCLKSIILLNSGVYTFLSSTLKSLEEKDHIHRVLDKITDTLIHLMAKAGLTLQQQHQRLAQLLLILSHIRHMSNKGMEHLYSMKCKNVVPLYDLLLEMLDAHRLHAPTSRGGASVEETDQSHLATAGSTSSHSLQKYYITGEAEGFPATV

[17] = molecular target: Induced myeloid leukemia cell differentiation protein Mcl-1 (Homo sapiens, UniProt Q07820); assay type: functional
Induced myeloid leukemia cell differentiation protein Mcl-1, sequence (Q07820 whole entry): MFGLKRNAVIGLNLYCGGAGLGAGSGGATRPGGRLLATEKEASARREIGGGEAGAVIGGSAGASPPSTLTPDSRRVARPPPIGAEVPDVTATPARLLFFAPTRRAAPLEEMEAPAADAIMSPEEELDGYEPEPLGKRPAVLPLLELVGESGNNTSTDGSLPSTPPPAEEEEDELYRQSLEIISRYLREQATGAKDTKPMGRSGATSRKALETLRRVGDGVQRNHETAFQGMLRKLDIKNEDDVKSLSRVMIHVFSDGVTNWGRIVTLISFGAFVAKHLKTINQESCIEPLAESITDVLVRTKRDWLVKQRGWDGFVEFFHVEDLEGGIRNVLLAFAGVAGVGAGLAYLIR

T5 sequence (Q00975 whole entry): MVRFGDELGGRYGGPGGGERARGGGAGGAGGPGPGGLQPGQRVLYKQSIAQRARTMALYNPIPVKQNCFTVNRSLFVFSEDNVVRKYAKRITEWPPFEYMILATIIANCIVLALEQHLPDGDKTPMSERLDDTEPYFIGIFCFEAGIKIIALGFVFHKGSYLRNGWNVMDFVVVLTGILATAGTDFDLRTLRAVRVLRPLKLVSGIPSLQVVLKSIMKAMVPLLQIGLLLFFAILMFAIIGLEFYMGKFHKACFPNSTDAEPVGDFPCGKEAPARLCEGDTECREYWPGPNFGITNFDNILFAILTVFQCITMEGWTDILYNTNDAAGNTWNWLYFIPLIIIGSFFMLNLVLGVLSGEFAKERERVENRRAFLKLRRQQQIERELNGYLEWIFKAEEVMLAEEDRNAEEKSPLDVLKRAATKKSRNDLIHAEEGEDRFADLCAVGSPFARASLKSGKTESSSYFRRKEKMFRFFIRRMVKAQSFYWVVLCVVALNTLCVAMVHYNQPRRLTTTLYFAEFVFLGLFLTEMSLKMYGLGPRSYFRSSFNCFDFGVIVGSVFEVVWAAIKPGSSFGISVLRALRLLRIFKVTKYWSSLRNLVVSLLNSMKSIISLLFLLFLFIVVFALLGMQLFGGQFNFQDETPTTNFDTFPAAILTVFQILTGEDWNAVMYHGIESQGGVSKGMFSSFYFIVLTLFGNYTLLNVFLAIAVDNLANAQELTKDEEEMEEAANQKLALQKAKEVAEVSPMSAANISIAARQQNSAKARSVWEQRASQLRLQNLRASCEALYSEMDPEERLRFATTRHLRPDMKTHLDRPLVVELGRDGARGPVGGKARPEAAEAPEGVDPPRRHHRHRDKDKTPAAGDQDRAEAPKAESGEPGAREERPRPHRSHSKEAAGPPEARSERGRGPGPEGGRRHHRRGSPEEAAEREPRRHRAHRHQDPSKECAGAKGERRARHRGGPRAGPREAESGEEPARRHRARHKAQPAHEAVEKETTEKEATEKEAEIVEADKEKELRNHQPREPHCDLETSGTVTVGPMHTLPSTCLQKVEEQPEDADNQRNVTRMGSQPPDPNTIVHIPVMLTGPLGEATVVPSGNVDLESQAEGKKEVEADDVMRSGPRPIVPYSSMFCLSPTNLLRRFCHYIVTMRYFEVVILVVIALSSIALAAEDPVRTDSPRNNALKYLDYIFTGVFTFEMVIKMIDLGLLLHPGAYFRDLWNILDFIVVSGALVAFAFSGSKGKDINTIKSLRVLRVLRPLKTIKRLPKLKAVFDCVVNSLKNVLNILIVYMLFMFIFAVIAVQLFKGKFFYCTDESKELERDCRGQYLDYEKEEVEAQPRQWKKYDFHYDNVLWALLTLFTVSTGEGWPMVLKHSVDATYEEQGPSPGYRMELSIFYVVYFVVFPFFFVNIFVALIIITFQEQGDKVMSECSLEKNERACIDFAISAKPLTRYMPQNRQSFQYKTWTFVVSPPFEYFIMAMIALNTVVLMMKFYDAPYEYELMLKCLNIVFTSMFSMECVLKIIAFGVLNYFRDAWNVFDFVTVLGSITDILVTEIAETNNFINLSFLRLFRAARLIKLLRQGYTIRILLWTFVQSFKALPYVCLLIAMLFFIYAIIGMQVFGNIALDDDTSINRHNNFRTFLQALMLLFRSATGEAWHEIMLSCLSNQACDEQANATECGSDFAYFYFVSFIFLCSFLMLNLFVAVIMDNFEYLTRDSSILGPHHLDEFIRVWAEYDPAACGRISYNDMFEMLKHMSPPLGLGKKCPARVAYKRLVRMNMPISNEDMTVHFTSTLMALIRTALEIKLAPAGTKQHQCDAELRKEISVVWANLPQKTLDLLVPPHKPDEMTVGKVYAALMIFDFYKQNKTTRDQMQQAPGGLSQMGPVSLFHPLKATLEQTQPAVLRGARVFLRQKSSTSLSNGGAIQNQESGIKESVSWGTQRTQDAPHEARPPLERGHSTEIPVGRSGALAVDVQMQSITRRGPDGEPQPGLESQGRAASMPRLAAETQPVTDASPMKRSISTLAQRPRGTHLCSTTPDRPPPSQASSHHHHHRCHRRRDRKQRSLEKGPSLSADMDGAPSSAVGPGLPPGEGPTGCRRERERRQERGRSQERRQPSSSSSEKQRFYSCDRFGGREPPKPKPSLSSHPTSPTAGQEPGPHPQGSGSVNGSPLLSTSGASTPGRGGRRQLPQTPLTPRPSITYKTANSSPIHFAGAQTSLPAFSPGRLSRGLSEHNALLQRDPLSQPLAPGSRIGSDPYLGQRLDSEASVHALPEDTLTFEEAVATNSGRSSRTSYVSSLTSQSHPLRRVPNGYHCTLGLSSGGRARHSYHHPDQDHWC
T5 sequence (Q02410 whole entry): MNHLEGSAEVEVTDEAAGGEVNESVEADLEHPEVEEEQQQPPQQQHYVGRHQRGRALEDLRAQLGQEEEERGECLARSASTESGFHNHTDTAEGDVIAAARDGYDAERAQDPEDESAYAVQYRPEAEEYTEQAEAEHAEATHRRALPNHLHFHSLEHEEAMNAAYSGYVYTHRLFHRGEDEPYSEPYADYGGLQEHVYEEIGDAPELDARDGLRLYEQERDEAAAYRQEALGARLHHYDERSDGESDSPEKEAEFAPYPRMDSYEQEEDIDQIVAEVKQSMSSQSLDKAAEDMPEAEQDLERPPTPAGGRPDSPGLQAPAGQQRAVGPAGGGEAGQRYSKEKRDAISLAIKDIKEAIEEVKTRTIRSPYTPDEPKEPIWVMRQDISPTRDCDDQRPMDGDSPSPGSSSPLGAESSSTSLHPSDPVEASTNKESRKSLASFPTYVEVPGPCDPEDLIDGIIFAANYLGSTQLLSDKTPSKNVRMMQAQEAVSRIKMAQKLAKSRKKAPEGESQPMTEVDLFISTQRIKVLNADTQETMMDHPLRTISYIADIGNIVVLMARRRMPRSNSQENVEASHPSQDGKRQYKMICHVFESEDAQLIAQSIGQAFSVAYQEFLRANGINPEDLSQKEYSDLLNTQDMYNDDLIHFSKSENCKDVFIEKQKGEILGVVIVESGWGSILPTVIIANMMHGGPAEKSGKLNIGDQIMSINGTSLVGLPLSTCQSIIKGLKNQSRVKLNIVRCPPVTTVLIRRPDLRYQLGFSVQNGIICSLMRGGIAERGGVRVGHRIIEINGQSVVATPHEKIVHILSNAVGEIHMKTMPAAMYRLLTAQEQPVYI
Cytochrome P450 3A4, sequence (P08684 whole entry): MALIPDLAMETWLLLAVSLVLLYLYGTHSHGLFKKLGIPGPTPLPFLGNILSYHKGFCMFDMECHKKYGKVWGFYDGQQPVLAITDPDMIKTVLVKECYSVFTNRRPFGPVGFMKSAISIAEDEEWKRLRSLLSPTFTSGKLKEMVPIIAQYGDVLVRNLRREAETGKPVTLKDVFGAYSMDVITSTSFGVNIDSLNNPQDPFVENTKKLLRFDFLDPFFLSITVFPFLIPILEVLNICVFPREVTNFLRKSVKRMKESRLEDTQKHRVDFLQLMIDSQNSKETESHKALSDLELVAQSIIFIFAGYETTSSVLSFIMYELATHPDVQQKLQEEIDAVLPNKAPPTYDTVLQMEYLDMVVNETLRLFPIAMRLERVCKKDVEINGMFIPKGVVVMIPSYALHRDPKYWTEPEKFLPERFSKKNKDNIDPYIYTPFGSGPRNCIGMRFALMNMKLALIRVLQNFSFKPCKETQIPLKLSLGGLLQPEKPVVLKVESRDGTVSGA
Beta-galactosidase, sequence (Q8VNN2 whole entry): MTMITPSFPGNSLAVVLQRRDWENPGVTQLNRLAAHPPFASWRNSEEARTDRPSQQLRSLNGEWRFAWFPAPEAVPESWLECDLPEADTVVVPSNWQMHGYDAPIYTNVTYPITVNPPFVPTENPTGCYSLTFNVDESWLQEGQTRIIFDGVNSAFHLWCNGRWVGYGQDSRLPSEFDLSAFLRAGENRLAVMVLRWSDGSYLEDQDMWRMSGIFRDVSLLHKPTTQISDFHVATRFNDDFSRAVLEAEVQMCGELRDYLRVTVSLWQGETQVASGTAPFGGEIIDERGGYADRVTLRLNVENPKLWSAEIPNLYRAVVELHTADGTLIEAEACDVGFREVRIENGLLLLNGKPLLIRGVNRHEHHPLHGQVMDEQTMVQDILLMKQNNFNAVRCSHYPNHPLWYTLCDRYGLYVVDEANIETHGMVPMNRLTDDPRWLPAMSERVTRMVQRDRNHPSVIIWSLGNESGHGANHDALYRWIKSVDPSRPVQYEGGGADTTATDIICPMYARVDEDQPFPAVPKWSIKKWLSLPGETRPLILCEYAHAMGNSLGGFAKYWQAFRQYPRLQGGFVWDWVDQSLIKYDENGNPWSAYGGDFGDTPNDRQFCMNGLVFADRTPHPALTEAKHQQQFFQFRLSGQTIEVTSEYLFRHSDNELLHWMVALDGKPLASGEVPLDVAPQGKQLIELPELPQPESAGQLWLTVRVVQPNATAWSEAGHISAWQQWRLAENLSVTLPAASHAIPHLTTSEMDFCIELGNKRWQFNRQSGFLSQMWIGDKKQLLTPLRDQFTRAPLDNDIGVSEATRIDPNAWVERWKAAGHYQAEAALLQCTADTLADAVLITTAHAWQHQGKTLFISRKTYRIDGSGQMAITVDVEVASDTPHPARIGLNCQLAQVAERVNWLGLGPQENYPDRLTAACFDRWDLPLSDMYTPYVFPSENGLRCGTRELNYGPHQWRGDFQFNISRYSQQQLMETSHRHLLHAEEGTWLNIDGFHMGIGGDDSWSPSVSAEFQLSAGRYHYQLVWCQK

Cc1cccc(Nc2cc(=O)[nH]c(=O)[nH]2)c1C
IC50 (Coagulation factor XII): > 50 µM (inactive)

CCOc1ccc(NC(=N)Nc2nc(O)cc(CSc3nnc(C)s3)n2)cc1
IC50 [1]: > 80 µM (inactive)
EC50 [2]: 0.291 µM (active)
EC50 [3]: 9.79 µM (active)
EC50 (BJ [4]): 20.6 µM (active)
EC50 [5]: 0.597 µM (active)
EC50 (BJ [6]): 1.11 µM (active)
AC50 [7]: 0.298 µM (active)
EC50 (BJ [8]): 1.37 µM (active)
EC50 [9]: 5.83 µM (active)

COC(=O)CS(=O)(=O)c1nnc([C@H](Cc2ccccc2)NC(=O)OC(C)(C)C)o1
AC50 [10]: 6.11 µM (active)
EC50 (Beta-galactosidase): > 40 µM (inactive)
EC50 (Protein RecA): 7.24 µM (active)
IC50 [11]: 12.4 µM (active)
IC50 (Coagulation factor XII): 8.95 µM (active)

OC(CNCCc1ccc(C(F)(F)F)cc1)COc1ccc2ccccc2c1 (stereo not drawn)
EC50 [12]: > 38 µM (not active)
CC50 (Vero): 16.6 µM (active)
EC50 [13]: 7.21 µM (active)
AC50 [7]: 3.34 µM (active)
CC50 [14]: > 40 µM (active)
IC50 (cells): 22.4 µM (active)

COC(Cn1c(C)c(C(C)=O)c(C(C)=O)c1C)OC
IC50 (Coagulation factor XII): > 50 µM (inactive)

CCCCOc1ccccc1C1CC(=O)NC2=C1C(=O)CCC2 (stereo not drawn)
IC50 [1]: > 80 µM (inactive)
AC50 (Cytochrome P450 3A4): 15.8 µM (inconclusive)

COc1cccc(NC(=N)Nc2nc(O)cc(CSc3ccccn3)n2)c1
IC50 [1]: > 80 µM (inactive)

CN1CCN(S(=O)(=O)c2ccc(Br)s2)CC1
IC50 (Coagulation factor XII): > 50 µM (inactive)

O=c1[nH]c(-c2ccc3c(c2)OCO3)nc2c1sc(=S)n2-c1ccccc1
IC50 [15]: > 50 µM (inactive)
IC50 [16]: 5.13 µM (active)

CCCc1nnc2n1N=C(c1ccc(-c3cc(Cl)ccc3Cl)o1)CS2
IC50 (Estrogen receptor): 13.4 µM (active)

COc1cc(NC(=O)c2ccccc2F)ccc1NC(=O)c1cc2ccccc2o1
IC50 [15]: > 50 µM (inactive)
IC50 [16]: 15.9 µM (active)

O=C(Nc1cnc(O)nc1O)c1ccc2c(c1)C(=O)N(c1cccc([N+](=O)[O-])c1)C2=O
IC50 [15]: > 50 µM (inactive)
IC50 [16]: 9.85 µM (active)

CCN(CC)C(=O)C(C(=O)c1cccc([N+](=O)[O-])c1)n1cc(Cl)ccc1=O (stereo not drawn)
EC50 (BJ [4]): > 150 µM (not active)
EC50 [5]: > 150 µM (not active)
EC50 (BJ [6]): > 150 µM (not active)
EC50 (BJ [8]): > 150 µM (inconclusive)

CC(/C=C/c1ccco1)=N\NC(=O)c1cc(C)[nH]n1
IC50 [17]: 4.92 µM (active)
IC50 [15]: 11.8 µM (active)
IC50 [16]: 4.52 µM (active)

O=C(CSc1nc2c(c(=O)n1-c1ccc(Br)cc1)SCC2)Nc1nccs1
IC50 (Estrogen receptor): > 50 µM (not active)

COc1cc(OC)nc(NC(=O)C(C)C)n1
IC50 (Estrogen receptor): > 50 µM (not active)

CCOc1ccc(N=C(N)Nc2nc(CSc3nnc(C)s3)cc(=O)[nH]2)cc1
IC50 (Coagulation factor XII): > 50 µM (inactive)
